Experimental data published in US20240051952A1, “HMOX1 INDUCERS” (Mitobridge Inc., priority 2019, published 2024).

system: Human Heme Oxygenase-1 (HMOX-1); test: ELISA assay to measure human heme oxygenase-1 (HMOX-1) in HepG2 lysate; format: cell-based; conditions: fold change of human HMOX1 protein levels relative to DMSO control, HepG2
In short: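 HO-1 protein quantified by chemiluminescent sandwich ELISA against a 2-fold standard series starting at 20 ng/ml. Samples were 1:20-diluted HepG2 lysates made in Triton X-100/EDTA buffer with protease inhibitors. Capture antibody coated at 8 μg/ml, detection antibody used at 200 ng/ml, room-temperature (20 °C) steps.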

Question: Which “Maximum Fold induction” value does the source give for `Cn1c(Nc2nc3ccc(OC(F)(F)F)cc3o2)nc2cc(C(=O)NC(CO)(CO)CO)ccc21` [Example 47, N-(1,3-dihydroxy-2-(hydroxymethyl)propan-2-yl)-1-methyl-2-((6-(trifluoromethoxy)benzo[d]oxazol-2-yl)amino)-1H-benzo[d]imidazole-5-carboxamide] here?
Answer: The value was 13-16.

Question: Which “Maximum Fold induction” value does the source give for `Cn1cc(NC(=O)c2ccc3c(c2)nc(Nc2nc4ccc(OC(F)(F)F)cc4o2)n3C)cn1` [Example 50, 1-methyl-N-(1-methyl-1H-pyrazol-4-yl)-2-((6-(trifluoromethoxy)benzo[d]oxazol-2-yl)amino)-1H-benzo[d]imidazole-5-carboxamide] here?
Answer: The value was 12-18.

Question: `CC(O)COCCNC(=O)c1ccc2c(c1)nc(Nc1nc3ccc(C(F)(F)F)cc3o1)n2C` (stereo not drawn) [Example 38, N-(2-(2-hydroxypropoxy)ethyl)-1-methyl-2-((6-(trifluoromethyl)benzo[d]oxazol-2-yl)amino)-1H-benzo[d]imidazole-5-carboxamide] was tested. Which “Maximum Fold induction” value did it give?
Answer: The value was 30.

Question: How did the “Maximum Fold induction” value turn out when `CC(O)CONC(=O)c1ccc2c(c1)nc(Nc1nc3ccccc3o1)n2C` (stereo not drawn) [Example 120, 2-(benzo[d]oxazol-2-ylamino)-N-(2-hydroxypropoxy)-1-methyl-1H-benzo[d]imidazole-5-carboxamide] was run?
Answer: Its value is 26.

Question: Which “Maximum Fold induction” value does the source give for `Cn1c(Nc2nc3ccc(OCCO)cc3o2)nc2cc(C(=O)NCCNC3=NCCN3)ccc21` [Example 106, N-(2-((4,5-dihydro-1H-imidazol-2-yl)amino)ethyl)-2-((6-(2-hydroxyethoxy)benzo[d]oxazol-2-yl)amino)-1-methyl-1H-benzo[d]imidazole-5-carboxamide] here?
Answer: Its value is 6.

Question: With `CCn1c(Nc2nc3ccc(OC(F)(F)F)cc3o2)nc2cc(C(=O)O)ccc21` [Example 84, 1-ethyl-2-((6-(trifluoromethoxy)benzo[d]oxazol-2-yl)amino)-1H-benzo[d]imidazole-5-carboxylic acid] as the compound, how does the “Maximum Fold induction” value read?
Answer: Its value is 17.

Question: With `COCCOc1ccc2nc(Nc3nc4cc(C(=O)NCCO)ccc4n3C)oc2c1` [Example 57, N-(2-hydroxyethyl)-2-((6-(2-methoxyethoxy)benzo[d]oxazol-2-yl)amino)-1-methyl-1H-benzo[d]imidazole-5-carboxamide] as the compound, how does the “Maximum Fold induction” value read?
Answer: The value was 34-40.

Question: `Cn1c(Nc2nc3ccc(OC(F)(F)F)cc3o2)nc2cc(C(=O)NCC3(O)COC3)ccc21` [Example 52, N-((3-hydroxyoxetan-3-yl)methyl)-1-methyl-2-((6-(trifluoromethoxy)benzo[d]oxazol-2-yl)amino)-1H-benzo[d]imidazole-5-carboxamide] was tested. Which “Maximum Fold induction” value did it give?
Answer: The value was 27.

Question: Which “Maximum Fold induction” value does the source give for `CN(C)CC(=O)NCCNC(=O)c1ccc2c(c1)nc(Nc1nc3ccc(OC(F)(F)F)cc3o1)n2C` [Example 49, N-(2-(2-(dimethylamino)acetamido)ethyl)-1-methyl-2-((6-(trifluoromethoxy)benzo[d]oxazol-2-yl)amino)-1H-benzo[d]imidazole-5-carboxamide] here?
Answer: Its value is 14-23.

Question: How did the “Maximum Fold induction” value turn out when `Cn1c(Nc2nc3ccc(C(F)(F)F)cc3o2)nc2cc(C(=O)NCCN3CCCCC3)ccc21` [Example 37, 1-methyl-N-(2-(piperidin-1-yl)ethyl)-2-((6-(trifluoromethyl)benzo[d]oxazol-2-yl)amino)-1H-benzo[d]imidazole-5-carboxamide] was run?
Answer: The value was 28.

Question: `O=C(O)c1ccc2c(c1)nc(Nc1nc3ccc(OC(F)(F)F)cc3o1)n2CC1(O)COC1` [Example 93, 1-((3-hydroxyoxetan-3-yl)methyl)-2-((6-(trifluoromethoxy)benzo[d]oxazol-2-yl)amino)-1H-benzo[d]imidazole-5-carboxylic acid] was tested. Which “Maximum Fold induction” value did it give?
Answer: Its value is 22.

Question: How did the “Maximum Fold induction” value turn out when `Cn1c(Nc2nc3ccccc3o2)nc2cc(C(=O)C(F)(F)F)ccc21` [Example 139, 1-(2-(benzo[d]oxazol-2-ylamino)-1-methyl-1H-benzo[d]imidazol-5-yl)-2,2,2-trifluoroethan-1-one] was run?
Answer: The value was 21.
